Entries after “also recorded” stand apart in the source; their conditions may differ. Read-outs that look alike come from different tables or passages of the source. Starred links: 1 amine or outer side, 2 acyl side, 3 side chain; linkers in the order of their positions; H or OH if unused. Positions of bridges follow the written chain, without caps; N, C: chain ends. Non-standard residues stand in square brackets, D forms with d. Residues, ends and D or L forms follow the SMILES beside them. ξ: configuration not given here. Pro(cis-4-Trz(4-CH2CH2Ph)) = O=C(O)[C@@H]1C[C@H](n2cc(CCc3ccccc3)nn2)CN1; X4 = O=C([C@@H]1C[C@H](n2cc(C3C4CC5CC(C4)CC3C5)nn2)CN1[*:1])[*:2]; Ile(3ξ) = CCC(C)[C@H](N)C(=O)O; Orn = NCCC[C@H](N)C(=O)O; Dab = NCC[C@H](N)C(=O)O; ξD = NC(CC(=O)O)C(=O)O
How the values were obtained:
HIV-1 gp120 = target: T1, HIV-1 gp120 (Human immunodeficiency virus type 1 group M subtype B, UniProt P35961); format: binding
T1 construct: Expression and Purification of Wild-Type gp120YU-2; made in house; host or cells: HEK 293F
Description: SPR competition binding assays were used to assess the structural elements required for cyclic hexapeptide binding to gp120. […] In an attempt to restore the lost contact, the length of the two linkers was changed (Linker 1 and Linker 2 in FIG. 12).
SPR experiments were performed on a Biacore 3000 optical biosensor (GE Healthcare). All experiments were carried out at 25° C. using standard PBS buffer pH=7.4 with 0.005% surfactant Tween. A CM5 sensor chip was derivatized by standard 1-ethyl-3-(3-dimethylaminopropyl) carbodiimide (EDC)/N-hydroxysuccinimide (NHS) chemistry, and coupling was done through ligand amine groups. Antibody 2B6R (α-human IL5R) was immobilized for negative control surfaces. For competition experiments, soluble four domain CD4 and 17b antibody were immobilized on the surface through standard EDC/NHS chemistry. For kinetic analyses, typically 2000-3000 RUs of protein reagents were immobilized on SPR chips, and analytes were passed over the surface at 50-100 μL/min. Surface regeneration was achieved by a 5 μL injection of 10 mM HCl solution at 100 μL/min. […] Regeneration of the surface was achieved by a single 10 second pulse of 1.3 M NaCl/35 mM NaOH and single 5-second pulse of 10 mM glycine, pH 1.5, for sCD4 and mAb 17b, respectively. All analyses were performed in triplicate.
The inhibition curve was converted into a calibration curve by the use of a fitting function. The fitting was done using the 4-parameter Equation (1) from BIAevaluation software,
The cyclic peptides of the invention were tested against HIV-1 gp120 by SPR competition assays as described elsewhere herein. A mixture of the cyclic peptide/gp120 solutions was passed over SPR chip immobilized with CD4 and 17b separately. The competition assay evaluated the ability of each peptide to inhibit the binding between gp120 and both soluble CD4 and 17b antibody, a surrogate for co-receptor.

HIV-1 Bal.01 pseudovirus = assay: Inhibition of HIV-1 infection against Bal.01 (HOS.T4.R5 cells, luciferase); format: cell-based
HIV-1 JR-FL pseudovirus = assay: Inhibition of HIV-1 infection against JR-FL (HOS.T4.R5 cells, luciferase); format: cell-based

Molecule	Dual receptor site (CD4 and 17b) inhibition of gp120, in words (HIV-1 gp120; SPR competition)	other results
CC[C@H](C)[C@@H]1NC(=O)[C@H](CC(N)=O)NC(=O)[C@H](CC(N)=O)NC(=O)[C@@H](N)CCC(=O)NCCCC[C@@H](C(N)=O)NC(=O)[C@H](Cc2c[nH]c3ccccc23)NC(=O)[C@@H]2C[C@H](n3cc(CCc4ccccc4)nn3)CN2C1=O [AAR026, 2,2′-((3S,6S,15S,18S,21S,24S,28S,29aS)-3-((1H-indol-3-yl)methyl)-15-amino-24-((S)-sec-butyl)-6-carbamoyl-1,4,12,16,19,22,25-heptaoxo-28-(4-phenethyl-1H-1,2,3-triazol-1-yl)octacosahydro-1H-pyrrolo[2,1-f][1,4,7,10,13,16,22]heptaazacycloheptacosine-18,21-diyl)diacetamide] (H-ENNI[Pro(cis-4-Trz(4-CH2CH2Ph))]WK-NH2; lactam 1-7)	retained the dual receptor site inhibitory signature of linear PTs; also recorded: dual inhibitors	
CCC(C)[C@@H]1NC(=O)[C@H](CC(N)=O)NC(=O)[C@@H](N)CC(=O)NCCCC[C@@H](C(N)=O)NC(=O)[C@H](Cc2c[nH]c3ccccc23)NC(=O)[C@@H]2C[C@H](n3cc(C4C5CC6CC(C5)CC4C6)nn3)CN2C1=O (stereo partly drawn) [AAR029F, (3S,6S,14S,17S,20S,24S,25aS)-3-((1H-indol-3-yl)methyl)-24-(4-((1R,3S,5S,7S)-adamantan-2-yl)-1H-1,2,3-triazol-1-yl)-14-amino-17-(2-amino-2-oxoethyl)-20-(sec-butyl)-1,4,12,15,18,21-hexaoxotetracosahydro-1H-pyrrolo[2,1-f][1,4,7,10,13,18]hexaazacyclotricosine-6-carboxamide] (H-DN[Ile(3ξ)][X4]WK-NH2; lactam 1-6)	dual inhibitors	
CC[C@H](C)[C@@H]1NC(=O)[C@H](CC(N)=O)NC(=O)[C@@H](N)CCC(=O)NCC[C@@H](C(N)=O)NC(=O)[C@H](Cc2c[nH]c3ccccc23)NC(=O)[C@@H]2C[C@H](n3cc(CCc4ccccc4)nn3)CN2C1=O [AAR030, (3S,6S,13S,16S,19S,23S,24aS)-3-((1H-indol-3-yl)methyl)-13-amino-16-(2-amino-2-oxoethyl)-19-((S)-sec-butyl)-1,4,10,14,17,20-hexaoxo-23-(4-phenethyl-1H-1,2,3-triazol-1-yl)tetracosahydropyrrolo[1,2-g][1,4,7,10,13,17]hexaazacyclodocosine-6-carboxamide] (H-ENI[Pro(cis-4-Trz(4-CH2CH2Ph))]W[Dab]-NH2; lactam 1-6)	inactive	
CC[C@H](C)[C@@H]1NC(=O)[C@H](CC(N)=O)NC(=O)[C@@H](N)CC(=O)NCCC[C@@H](C(N)=O)NC(=O)[C@H](Cc2c[nH]c3ccccc23)NC(=O)[C@@H]2C[C@H](n3cc(CCc4ccccc4)nn3)CN2C1=O [AAR031, (3S,6S,13S,16S,19S,23S,24aS)-3-((1H-indol-3-yl)methyl)-13-amino-16-(2-amino-2-oxoethyl)-19-((S)-sec-butyl)-1,4,11,14,17,20-hexaoxo-23-(4-phenethyl-1H-1,2,3-triazol-1-yl)tetracosahydropyrrolo[2,1-f][1,4,7,10,13,18]hexaazacyclodocosine-6-carboxamide] (H-DNI[Pro(cis-4-Trz(4-CH2CH2Ph))]W[Orn]-NH2; lactam 1-6)	dual inhibitors	IC50 value in words (HIV-1 gp120; SPR competition): micro molar
CC[C@H](C)[C@@H]1NC(=O)[C@H](CC(N)=O)NC(=O)C(N)CC(=O)NCC[C@@H](C(N)=O)NC(=O)[C@H](Cc2c[nH]c3ccccc23)NC(=O)[C@@H]2C[C@H](n3cc(CCc4ccccc4)nn3)CN2C1=O (stereo partly drawn) [AAR032, (3S,6S,15S,18S,22S,23aS)-3-((1H-indol-3-yl)methyl)-12-amino-15-(2-amino-2-oxoethyl)-18-((S)-sec-butyl)-1,4,10,13,16,19-hexaoxo-22-(4-phenethyl-1H-1,2,3-triazol-1-yl)docosahydro-1H-pyrrolo[1,2-g][1,4,7,10,13,17]hexaazacyclohenicosine-6-carboxamide] (H-[ξD]NI[Pro(cis-4-Trz(4-CH2CH2Ph))]W[Dab]-NH2; lactam 1-6)	dual inhibitors	fold improvement vs AAR031 (HIV-1 gp120; two-carbon Linker 1 (Dab)): ~10 fold
(3S,6S,12S,15S,19S,20aS)-3-((1H-indol-3-yl)methyl)-12-amino-15-((S)-sec-butyl)-19-(4-ferrocenyl-1H-1,2,3-triazol-1-yl)-1,4,10,13,16-pentaoxoicosahydropyrrolo [1,2-d][1,4,7,10,14]pentaazacyclooctadecine-6-carboxamide [AAR040]	dual inhibitors	
(3S,6S,14S,17S,20S,24S,25aS)-3-((1H-indol-3-yl)methyl)-14-amino-17-(2-amino-2-oxoethyl)-20-butyl-24-(4-ferrocenyl-1H-1,2,3-triazol-1-yl)-1,4,12,15,18,21-hexaoxotetracosahydro-1H-pyrrolo[2,1-f][1,4,7,10,13,18]hexaazacyclotricosine-6-carboxamide [AAR036]	dual inhibitors	
(3S,6S,14S,17S,20S,24S,25aS)-3-((1H-indol-3-yl)methyl)-14-amino-17-(2-amino-2-oxoethyl)-20-cyclohexyl-24-(4-ferrocenyl-1H-1,2,3-triazol-1-yl)-1,4,12,15,18,21-hexaoxotetracosahydro-1H-pyrrolo[2,1-f][1,4,7,10,13,18]hexaazacyclotricosine-6-carboxamide [AAR029b-Chg]		Infection inhibition against Bal.01, in words (HIV-1 Bal.01 pseudovirus): inhibiting activity
(3S,6S,14S,17S,20S,24S,25aS)-3-((1H-indol-3-yl)methyl)-14-amino-17-(2-amino-2-oxoethyl)-20-cyclopropyl-24-(4-ferrocenyl-1H-1,2,3-triazol-1-yl)-1,4,12,15,18,21-hexaoxotetracosahydro-1H-pyrrolo[2,1-f][1,4,7,10,13,18]hexaazacyclotricosine-6-carboxamide [AAR042]	dual inhibitors	
(3S,6S,14S,17S,20S,24S,25aS)-14-amino-17-(2-amino-2-oxoethyl)-3-(benzo[b]thiophen-3-ylmethyl)-20-(sec-butyl)-24-(4ferocenyl-1H-1,2,3-triazol-1-yl)-1,4,12,15,18,21-hexaoxotetracosahydro-1H-pyrrolo[2,1-f][1,4,7,10,13,18]hexaazacyclotricosine-6-carboxamide [AAR029E]		Dual receptor site (CD4 and 17b) inhibition of gp120, in words (HIV-1 gp120): dual inhibitors; Infection inhibition against Bal.01, in words (HIV-1 Bal.01 pseudovirus): inhibiting activity
(3S,6S,15S,18S,21S,25S,26aS)-3-((1H-indol-3-yl)methyl)-18-(2-amino-2-oxoethyl)-15-((2S,3S)-2-amino-3-methylpentanamido)-21-((S)-sec-butyl)-25-(4-ferrocenyl-1H-1,2,3-triazol-1-yl)-1,4,12,16,19,22-hexaoxohexacosahydropyrrolo[2,1-f][1,4,7,10,13,19]hexaazacyclotetracosine-6-carboxamide [AAR024b]	enhanced dual receptor site antagonizing activities; also recorded: dual inhibitors	Infection inhibition against Bal.01, in words (HIV-1 Bal.01 pseudovirus): inhibiting activity; Infection inhibition against JR-FL, in words (HIV-1 JR-FL pseudovirus): inhibiting activity
